# Measurements from ChEMBL document CHEMBL1201862, “PubChem BioAssay data set” (2004).
#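 Exposure lasted 48 hours, with cells grown in 96-well plates and compounds tested at five concentrations. The concentration for 50% growth inhibition is given as GI50.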 Activity calls are given as the source filed them. Cut-off read from the data, not from the text of the source: active = GI50 up to about 1.1 µM and inactive = higher.
# Columns and labels:
# Assay in all cases: NCI anticancer screen, dose series, 48 h
# HCC 2998 = test system: HCC 2998
# IGROV-1 = test system: IGROV-1
# HCT-15 = test system: HCT-15
# A549 = test system: A549
# MOLT-4 = test system: MOLT-4
# ACHN = test system: ACHN
# K562 = test system: K562
# HOP-62 = test system: HOP-62
# SK-MEL-28 = test system: SK-MEL-28
# Malme-3M = test system: Malme-3M
# A498 = test system: A498
# RPMI-8226 = test system: RPMI-8226
# OVCAR-4 = test system: OVCAR-4
# KM12 = test system: KM12
# NCI-H522 = test system: NCI-H522
# UACC-257 = test system: UACC-257
# MDA-N = test system: MDA-N
# U-251 = test system: U-251
# HL-60 = test system: HL-60
# PC-3 = test system: PC-3
# SK-OV-3 = test system: SK-OV-3
# MCF7 = test system: MCF7
# OVCAR-8 = test system: OVCAR-8
# NCI-H23 = test system: NCI-H23
# SK-MEL-2 = test system: SK-MEL-2
# BT-549 = test system: BT-549
# TK-10 = test system: TK-10
# SNB-19 = test system: SNB-19
# MDA-MB-231 = test system: MDA-MB-231
# OVCAR-5 = test system: OVCAR-5
# CAKI-1 = test system: CAKI-1
# UACC-62 = test system: UACC-62
# CCRF-CEM = test system: CCRF-CEM
# SN12C = test system: SN12C
# M14 = test system: M14
# DU-145 = test system: DU-145
# COLO 205 = test system: COLO 205
# LOX IMVI = test system: LOX IMVI
# UO-31 = test system: UO-31
# HOP-92 = test system: HOP-92
# Hs-578T = test system: Hs-578T
# SF-268 = test system: SF-268
# SK-MEL-5 = test system: SK-MEL-5
# OVCAR-3 = test system: OVCAR-3
# HT-29 = test system: HT-29
# MDA-MB-435 = test system: MDA-MB-435
# 786-0 = test system: 786-0
# SF-295 = test system: SF-295
# SW-620 = test system: SW-620
# SR = test system: SR
# NCI-H226 = test system: NCI-H226
# SF-539 = test system: SF-539
# SNB-75 = test system: SNB-75
# NCI/ADR-RES = test system: NCI/ADR-RES
# T47D = test system: T47D
# HCT-116 = test system: HCT-116
# RXF 393 = test system: RXF 393
# EKVX = test system: EKVX
# NCI-H460 = test system: NCI-H460
smiles,measurement,setting,value
O=C/C=C/c1ccco1,GI50,HCC 2998,> 100 µM (inactive)
same,GI50,IGROV-1,> 100 µM (inactive)
same,GI50,HCT-15,> 100 µM
same,GI50,A549,> 100 µM (inactive)
same,GI50,MOLT-4,> 100 µM (inactive)
same,GI50,ACHN,> 100 µM (inactive)
same,GI50,K562,> 100 µM (inactive)
same,GI50,HOP-62,> 100 µM (inactive)
same,GI50,SK-MEL-28,> 100 µM (inactive)
same,GI50,Malme-3M,> 100 µM (inactive)
same,GI50,A498,> 100 µM (inactive)
same,GI50,RPMI-8226,> 100 µM (inactive)
same,GI50,OVCAR-4,> 100 µM (inactive)
same,GI50,KM12,> 100 µM (inactive)
same,GI50,NCI-H522,> 100 µM (inactive)
same,GI50,UACC-257,> 100 µM (inactive)
same,GI50,MDA-N,> 100 µM (inactive)
same,GI50,U-251,96.8 µM (inactive)
same,GI50,HL-60,5.56 µM (inactive)
same,GI50,PC-3,> 100 µM (inactive)
same,GI50,SK-OV-3,> 100 µM (inactive)
same,GI50,MCF7,> 100 µM (inactive)
same,GI50,OVCAR-8,> 100 µM (inactive)
same,GI50,NCI-H23,> 100 µM (inactive)
same,GI50,SK-MEL-2,> 100 µM (inactive)
same,GI50,BT-549,> 100 µM (inactive)
same,GI50,TK-10,> 100 µM (inactive)
same,GI50,SNB-19,> 100 µM (inactive)
same,GI50,MDA-MB-231,> 100 µM (inactive)
same,GI50,OVCAR-5,> 100 µM (inactive)
same,GI50,CAKI-1,> 100 µM (inactive)
same,GI50,UACC-62,> 100 µM (inactive)
same,GI50,CCRF-CEM,9.48 µM (inactive)
same,GI50,SN12C,> 100 µM (inactive)
same,GI50,M14,> 100 µM (inactive)
same,GI50,DU-145,> 100 µM (inactive)
same,GI50,COLO 205,> 100 µM (inactive)
same,GI50,LOX IMVI,> 100 µM (inactive)
same,GI50,UO-31,> 100 µM (inactive)
same,GI50,HOP-92,> 100 µM (inactive)
same,GI50,Hs-578T,> 100 µM (inactive)
same,GI50,SF-268,> 100 µM (inactive)
same,GI50,SK-MEL-5,> 100 µM (inactive)
same,GI50,OVCAR-3,> 100 µM (inactive)
same,GI50,HT-29,> 100 µM (inactive)
same,GI50,MDA-MB-435,> 100 µM (inactive)
same,GI50,786-0,> 100 µM (inactive)
same,GI50,SF-295,61.8 µM (inactive)
same,GI50,SW-620,> 100 µM (inactive)
same,GI50,SR,31.3 µM (inactive)
same,GI50,NCI-H226,> 100 µM (inactive)
same,GI50,SF-539,94.8 µM (inactive)
same,GI50,SNB-75,> 100 µM (inactive)
same,GI50,NCI/ADR-RES,> 100 µM (inactive)
same,GI50,T47D,> 100 µM (inactive)
same,GI50,HCT-116,> 100 µM (inactive)
same,GI50,RXF 393,> 100 µM (inactive)
same,GI50,EKVX,> 100 µM (inactive)
COC(=O)C1CC23CCCN4CCC5(c6ccccc6N(C=O)C15CC2)C43 (stereo unspecified),GI50,HCC 2998,> 100 µM (inactive)
same,GI50,IGROV-1,> 100 µM (inactive)
same,GI50,NCI-H460,> 100 µM (inactive)
same,GI50,HCT-15,> 100 µM
same,GI50,A549,> 100 µM (inactive)
same,GI50,MOLT-4,> 100 µM (inactive)
same,GI50,ACHN,> 100 µM (inactive)
same,GI50,HOP-62,> 100 µM (inactive)
same,GI50,SK-MEL-28,> 100 µM (inactive)
same,GI50,Malme-3M,> 100 µM (inactive)
same,GI50,A498,> 100 µM (inactive)
same,GI50,RPMI-8226,> 100 µM (inactive)
same,GI50,OVCAR-4,> 100 µM (inactive)
same,GI50,KM12,> 100 µM (inactive)
same,GI50,NCI-H522,> 100 µM (inactive)
same,GI50,UACC-257,> 100 µM (inactive)
same,GI50,MDA-N,> 100 µM (inactive)
same,GI50,U-251,> 100 µM (inactive)
same,GI50,HL-60,> 100 µM (inactive)
same,GI50,PC-3,> 100 µM (inactive)
same,GI50,SK-OV-3,> 100 µM (inactive)
same,GI50,MCF7,> 100 µM (inactive)
same,GI50,OVCAR-8,> 100 µM (inactive)
same,GI50,NCI-H23,> 100 µM (inactive)
same,GI50,SK-MEL-2,> 100 µM (inactive)
same,GI50,BT-549,> 100 µM (inactive)
same,GI50,TK-10,> 100 µM (inactive)
same,GI50,SNB-19,> 100 µM (inactive)
same,GI50,MDA-MB-231,> 100 µM (inactive)
same,GI50,OVCAR-5,> 100 µM (inactive)
same,GI50,CAKI-1,> 100 µM (inactive)
same,GI50,UACC-62,> 100 µM (inactive)
same,GI50,CCRF-CEM,> 100 µM (inactive)
same,GI50,SN12C,> 100 µM (inactive)
same,GI50,M14,> 100 µM (inactive)
same,GI50,DU-145,> 100 µM (inactive)
same,GI50,COLO 205,> 100 µM (inactive)
same,GI50,LOX IMVI,> 100 µM (inactive)
same,GI50,UO-31,> 100 µM (inactive)
same,GI50,HOP-92,> 100 µM (inactive)
same,GI50,Hs-578T,> 100 µM (inactive)
same,GI50,SF-268,> 100 µM (inactive)
same,GI50,SK-MEL-5,> 100 µM (inactive)
same,GI50,OVCAR-3,> 100 µM (inactive)
same,GI50,HT-29,> 100 µM (inactive)
same,GI50,MDA-MB-435,> 100 µM (inactive)
same,GI50,786-0,> 100 µM (inactive)
same,GI50,SF-295,> 100 µM (inactive)
same,GI50,SW-620,> 100 µM (inactive)
same,GI50,SR,> 100 µM (inactive)
same,GI50,NCI-H226,> 100 µM (inactive)
same,GI50,SF-539,> 100 µM (inactive)
same,GI50,SNB-75,> 100 µM (inactive)
same,GI50,NCI/ADR-RES,> 100 µM (inactive)
same,GI50,T47D,> 100 µM (inactive)
same,GI50,HCT-116,> 100 µM (inactive)
same,GI50,RXF 393,> 100 µM (inactive)
same,GI50,EKVX,> 100 µM (inactive)
